Consider four compounds from US20130324508A1, “BIOMARKER FOR PROSTATE CANCER AND METHOD OF USING THE SAME” (UNIVERSITY OF TENNESSEE RESEARCH FOUNDATION, priority 2012, published 2013).

Ends that are not written are not given here.

In test [1] the test system is PC-3. Description: PSA and Runx 2II gene expression in PC-3 cells (real time RT-PCR). Format: cell-based, human. As to conditions: 8 hours stimulation. On the procedure:
(§1) Human tissue cDNAs were obtained from Clontech Laboratories, Inc. Total RNA from human prostate cancer cells was isolated with RNeasy Mini Kit (Qiagen Inc., Valencia, Calif.). RT-PCR was done using two-step RNA PCR (Perkin-Elmer). In separate reactions, 2.0 μg of DNase-treated total RNA was reverse-transcribed into cDNA with the respective reverse primers specified below and Moloney murine leukemia virus reverse transcriptase (Gibco Life Technologies, Inc.). Reactions were carried out at 42° C. for 60 min followed by 94° C. for 5 min and 5° C. for 5 min. The products of first-strand cDNA synthesis were directly amplified by PCR using AmpliTaq DNA polymerase (Perkin-Elmer). The primers for human GPRC6A are as follows: hGPRC6A.F203: […] (SEQ ID NO: 1) and hGPRC6A.R630: […] (SEQ ID NO: 2). For housekeeping gene control G3PDH gene, G3PDH.F143: […] (SEQ ID NO: 3) and G3PDH.R1050: […] (SEQ ID NO: 4). For quantitative real time RT-PCR assessment of PSA and Runx 2II genes expression, total RNA was isolated and reverse transcribed from 22Rv1 cells that stimulated with or without OC (80 ng/ml), arginine (30 mM) and R1881 (100 nM) as previously described using specific primer sets. The primers sequences were PSA. For: […] (SEQ ID NO: 5) and PSA.Rev: […] (SEQ ID NO: 6); Runx 2. For: […] (SEQ ID NO: 7) and Runx 2. Rev: […] (SEQ ID NO: 8), and the threshold cycle (Ct) of tested-gene product from the indicated genotype was normalized to the Ct for cyclophilin A as previously described (18).
(§2) After 8 hours stimulation, OC, arginine and R1881 stimulated PSA and Runx 2II gene expression in human prostate cancer 22Rv1 (FIG. 4A and FIG. 4B) and PC-3 cells (FIG. 4C and FIG. 4D). * indicates a significant difference from control and stimulation at p<0.05 respectively.

Test [2] concerns 22Rv1. Briefly: Chemotaxis assay of 22Rv1 cells. The conditions noted are these: migration toward calcium or OC, various concentrations; FIG. 6C. In kind it is cell-based, human. The protocol: The migration of 22Rv1 cells stably expressing negative control siRNA and human GPRC6A-specific siRNA using a previously described chemotaxis assay (22). The migration index was calculated, and was defined as number of cells crossing the filter toward calcium or OC (various concentrations)/number of cells migrating toward medium alone (control). Each experiment was performed at least three times, in duplicate.
Now referring to FIG. 6. To assess whether GPRC6A mediates prostate cancer cells chemotaxis and metastases, the ability of calcium and OC to evoke chemotaxis of human prostate cancer cell 22Rv1 expressing GPRC6A was examined. The ligands of GPRC6A, OC, arginine and R1881 stimulated gene expression of PSA (FIG. A) and Runx2 (FIG. B) were attenuated by GPRC6A siRNA in 22Rv1, human prostate cancer cells. […] The experiments were described in Materials and methods. In all of the above studies, values for relative cell proliferation (expressed as percent of control) represent the mean±SEM of a minimum of three separate experiments.

In test [3] the test system is 22Rv1. Description: PSA and Runx 2II gene expression in 22Rv1 cells (real time RT-PCR). As to conditions: 22Rv1, 8 hours stimulation, OC 80 ng/ml, arginine 30 mM, R1881 100 nM. Format: cell-based, human. On the procedure: as §1, §2
To investigate whether the observed ligand-induced PSA and Runx2 gene expression in the prostate cancer cells is due to simulation of GPRC6A, the response to GPRC6A ligands was examined after knock-down of GPRC6A. ERK activity was assessed in 22Rv1 stably transfected with GPRC6A siRNA-514 and compared this response to transfected cells with a random negative control siRNA plasmid, which were used as controls.

The subject of test [4] is PC-3. Briefly: ERK activation in PC-3 prostate cancer cells (Western blot). In kind it is cell-based, human. As to conditions: PC-3 (androgen receptor negative); calcium 10 mM, zinc 0.2 mM, OC 20 ng/ml, arginine 20 mM, testosterone-BSA 60 nM; 5 min; FIG. 2B. The protocol: (§3) Briefly, human prostate cancer cells and the cells transfected with GPRC6A will be made quiescent by overnight incubation in serum-free DMEM/F12 containing 0.1% BSA and stimulated with various ligands at different doses. ERK activation will be assessed 5 to 30 minutes after treatment by immunoblotting using anti-phospho-ERK1/2 MAP kinase antibody (Cell Signaling Technology) corrected for the amount of ERK using an anti-ERK1/2 MAP Kinase antibody (Cell Signaling Technology) to measure ERK levels.
(§4) Referring to FIG. 2. […] Here, calcium (1-20 mM), zinc (0.2-0.8 mM), OC (5-60 ng/ml), arginine (5-30 mM), and testosterone-BSA (5-100 nM) are confirmed to be functional ligands for GPRC6A (16-17, 19). […] Calcium (10 mM), zinc (0.2 mM), OC (20 ng/ml), arginine (20 mM), and testosterone-BSA (60 nM) increased phospho-ERK in both of these cells. The HEK cells transfected with GPRC6A or without the plasmid cDNA of GPRC6A or 22Rv1 or PC-3 were incubated in Dulbecco's modified Eagle's medium/F-12 containing 0.1% bovine serum albumin quiescence media and exposed to the extracellular calcium, OC, arginine, or testosterone-BSA at indicated concentrations for 5 min, and ERK activation was determined as described under Materials and Methods. Representative blots are shown, and the results were verified in at least three independent experiments.
(§5) To confirm the importance of GPRC6A signaling in prostate cancer cell line, the response to GPRC6A ligands was accessed after knock-down of GPRC6A using siRNA. For these studies, ERK activity was assessed in 22Rv1 and PC-3 cells stably transfected with GPRC6A siRNA-202 and siRNA-514. These responses were compared control groups consisting of mock-transfected cells and transfected cells with a random negative control siRNA plasmid.

Test [5] relates to non-transfected HEK-293 cells. Description: ERK activation in non-transfected HEK-293 cells (Western blot). In kind it is cell-based. The conditions noted are these: same ligand concentrations, 5 min. The protocol: as §3, §4
The test system of another test is 22Rv1 or PC-3. Briefly: Cell proliferation by hemocytometer cell count. The conditions noted are these: 22Rv1 or PC-3, 72 h culture, versus control without added ligand; FIG. 3. In kind it is cell-based, human. The protocol: The prostate cancer cell lines 22Rv1, PC-3 and LNcaP and the prostate cell lined RWPE-1 derived from normal prostate were obtained from the American Type Culture Collection (Manassas, Va.). The prostate cells were maintained in RPMI 1640 supplemented with 10% fetal bovine serum (Gibco Life Technologies, Inc.). Cells (10^3 cells/well) were cultured in triplicate in a 96-well flat-bottomed microculture dish using RPMI 1640 containing 10% CFBS in the presence and absence of various concentrations of GPRC6A ligands, including: calcium, amino acids, calcimimetic and OC for 72 h. Cell proliferation was determined by counting cells with a hemocytometer (21).
Now referring to FIG. 3. To determine if GPRC6A ligands enhance prostate cell growth, changes were accessed in cell numbers in 22Rv1 and PC-3 cells exposed to different concentrations of extracellular calcium or OC over a three-day culture period. […] Cell proliferation was determined by counting cells in a hemocytometer method as described in Materials and methods. In all of the above studies, values for relative cell proliferation (expressed as percent of control) represent the mean±SEM of a minimum of three separate experiments. * indicates a significant difference from control and stimulation at p<0.05, respectively.

The test system of test [6] is 22Rv1. Briefly: ERK activation in 22Rv1 prostate cancer cells (Western blot). The conditions noted are these: 22Rv1 (androgen receptor positive); calcium 10 mM, zinc 0.2 mM, OC 20 ng/ml, arginine 20 mM, testosterone-BSA 60 nM; 5 min; FIG. 2B. In kind it is cell-based, human. On the procedure:
as §3, §4, §5

In a further test the test system is GPRC6A. Briefly: ERK activation in HEK-293 cells transfected with GPRC6A (Western blot). Format: cell-based. The conditions noted are these: HEK-293 overexpressing GPRC6A; 5 min; calcium 1-20 mM, zinc 0.2-0.8 mM, OC 5-60 ng/ml, arginine 5-30 mM, testosterone-BSA 5-100 nM; FIG. 2A. On the procedure:
as §3, §4

A further test relates to DU145. As to conditions: androgen-independent DU145 cells; cited from earlier work.
Test [7] relates to PC-3. As to conditions: androgen-independent PC-3 cells; cited from earlier work.
For a further test, the system named is LNCaP. The conditions noted are these: androgen-dependent LNCaP cells; cited from earlier work.
The next test relates to PC-3 cells. The conditions noted are these: PC-3 cells treated with ERK pathway inhibitor; cited from earlier work.
The target in test [8] is Human GPRC6A, endogenous in human prostate cancer cell lines 22Rv1 and PC-3 (human) (UniProt Q5T6X5). Description: cell-based or functional assay.
UniProt Q5T6X5, sequence (Q5T6X5 19-926): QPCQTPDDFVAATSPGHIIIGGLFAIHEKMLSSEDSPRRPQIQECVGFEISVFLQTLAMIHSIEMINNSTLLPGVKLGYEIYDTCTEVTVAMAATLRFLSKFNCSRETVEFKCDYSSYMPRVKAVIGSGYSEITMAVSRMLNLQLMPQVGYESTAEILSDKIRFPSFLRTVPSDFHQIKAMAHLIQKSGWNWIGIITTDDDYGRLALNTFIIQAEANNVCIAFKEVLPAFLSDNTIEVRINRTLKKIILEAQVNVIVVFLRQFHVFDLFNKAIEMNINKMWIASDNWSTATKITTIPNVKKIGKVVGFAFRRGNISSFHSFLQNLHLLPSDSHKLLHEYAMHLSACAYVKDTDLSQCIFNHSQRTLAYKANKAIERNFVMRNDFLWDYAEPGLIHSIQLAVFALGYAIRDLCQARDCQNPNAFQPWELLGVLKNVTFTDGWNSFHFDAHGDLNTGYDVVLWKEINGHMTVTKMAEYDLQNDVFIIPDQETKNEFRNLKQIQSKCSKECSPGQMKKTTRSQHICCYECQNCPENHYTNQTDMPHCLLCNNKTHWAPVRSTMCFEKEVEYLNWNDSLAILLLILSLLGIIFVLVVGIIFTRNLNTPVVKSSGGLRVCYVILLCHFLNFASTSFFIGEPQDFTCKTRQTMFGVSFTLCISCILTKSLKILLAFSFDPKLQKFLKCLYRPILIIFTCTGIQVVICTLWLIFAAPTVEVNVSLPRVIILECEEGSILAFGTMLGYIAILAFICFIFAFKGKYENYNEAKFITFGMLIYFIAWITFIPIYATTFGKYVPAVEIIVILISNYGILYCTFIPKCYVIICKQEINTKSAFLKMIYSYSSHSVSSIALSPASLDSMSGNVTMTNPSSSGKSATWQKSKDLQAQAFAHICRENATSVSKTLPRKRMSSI

Take “OC: Osteocalcin (purified from bovine bone), vitamin-K dependent hormone, GPRC6A ligand (YLDHWLGAPAPYPDPLEPKREVCELNPDCDELADHIGFQEAYRRFYGPV; ends and bridges not checked; cysteine pairing not given here; UniProt P02820 52-100, looked up)”: the PSA gene expression entry in the test on PC-3 [1] (FIG. 4C) and in the test on 22Rv1 [3] (FIG. 4A) was “stimulated” throughout. Besides, the “Runx 2II gene expression” value in the test on PC-3 [1] (FIG. 4D) and with 22Rv1 [3] (FIG. 4B) was “stimulated” in each case. For the same compound, the “chemotaxis of 22Rv1 prostate cancer cells” value in the test with 22Rv1 [2] is given as “induced the chemotaxis”. In addition, the phospho-ERK entry in the test on PC-3 [4] and in the test with 22Rv1 [6] was “increased” each time. Further, the ERK response result in test [5] is reported as “failed to respond”. Moreover, the “increase in cell number” value in the test with 22Rv1 or PC-3 is on record as approximately 70%. In addition, the “stimulation of ERK activity” value in the test with GPRC6A is given as “dose-dependent stimulation”.

For `C[N+](C)(C)CCOC(N)=O` [carbachol], the ERK phosphorylation result in the test with DU145 was “ERK phosphorylation is noted”; in the test on PC-3 [7] it was “ERK phosphorylation is noted”; with LNCaP, “not”.

In the case of `COc1cccc(-c2cc(=O)c3ccccc3o2)c1N` [PD98059], the growth-factor-mediated cell proliferation result with PC-3 cells is listed as “obliterates”.

The compound “Osteocalcin (purified from bovine bone) (from UniProt P02820 52-100) (ligand)” returned a cell number after 72 h culture of 22Rv1 and PC-3 cells with OC in test [8] of 70%.
